# Measurements published in PMC3514216, “SRC Homology 2 Domain Binding Sites in Insulin, IGF-1 and FGF receptor mediated signaling networks reveal an extensive potential interactome” (Cell Communication and Signaling : CCS, 2012).
# System: panel of 50 SH2 domains
# Test: SPOT peptide array probed with each of 50 GST-SH2 domains
# Assay type: binding
# Conditions: for SH2 Domains >3X / 2X < SH2 Domains < 3X: SPOT192 peptide array; for SH2 Domains >3X: list of GST-SH2 domains with spot intensity >3X array mean (array-positive); for 2X < SH2 Domains < 3X: list of GST-SH2 domains with spot intensity between 2X and 3X array mean (indeterminate range)
# From the text: The use of addressable peptide arrays is a reproducible and semi-quantitative approach that has been extensively validated for studying protein interactions with peptide ligands. To investigate connections between SH2 domain proteins and their putative phosphorylated docking sites on cell surface receptors, we developed addressable arrays consisting of 192 phosphotyrosine peptides. This peptide set was assembled using 71 phosphotyrosine peptide motifs corresponding to all of the cytoplasmic tyrosine residues within the FGF receptors (FGFR1-4), insulin receptor (InsR) and IGF-1 receptor (IGF-1R) (Figure 1A). Activation of these receptors results in the phosphorylation of associated scaffold proteins, and so 75 phosphotyrosine peptides corresponding to a comprehensive list of tyrosine residues within insulin receptor substrates (IRS-1 and IRS-2) and fibroblast receptor substrates (FRS-2 and FRS-3) were included. In addition, 33 phosphotyrosine peptides were incorporated from the downstream signaling proteins PLC-γ1, p130Cas (BCAR1) and p62DOK1. […] These control peptides provide a reference and establish the empirical cut-off for designated binding interactions (Table 1). No discrimination was made against peptides on the basis of reported phosphorylation state in order to examine a diverse and unbiased set of motifs. The resulting set of 192 phosphotyrosine peptides and their corresponding position in the proteins of origin is noted in Additional file 1: Table S1. Addressable arrays were synthesized as membrane-bound 11-mer peptides using the SPOT synthesis technique. While the majority of SH2 domains recognize residues C-terminal to the phosphotyrosine in their cognate peptide ligands, additional contacts between SH2 domains and residues N-terminal to the phosphotyrosine are observed for the SH2 domain of Sh2d1a (SAP) and cannot be ruled out in other cases. Peptides were synthesized with six flanking residues C-terminal to the phosphotyrosine and four residues N-terminal to the phosphotyrosine.
# To assess the potential network of SH2 domain interactions we selected 50 SH2 domains representing 28 of the 38 families of SH2 domains (Figure 1B) all of which we have previously shown can be expressed and purified. These include a number of extensively studied SH2 domains (Src, Grb2, PLCγ), as well as a number of less studied SH2 domains from proteins such as Shd, She, Shf, Slnk (Sh2d6), Sh2d1a (SAP), Sh2d1b (Eat-2), and Brdg1. To address potential variability in specificity within families we employed all members from the SHB, CRK, GRB2, SRC and ABL families (families are indicated with complete Capitalized lettering).
# SH2 domains were arrayed as GST fusion proteins and detected using anti-GST primary antibodies and near-infrared labeled secondary antibodies. In an effort to present a dataset with minimal false positives, we chose an empirical cutoff based on the array average across all peptide spots to classify interactions (Figure 1A). In cases where the intensity of the signal for an individual SH2-domain binding event exceeded the mean intensity of all the peptides on the membrane by three-fold were scored as “array positives” [22]. Non-binding was judged in cases where the intensity of a spot was less than the mean intensity of all spots on the membrane and these were scored as “array negatives”. Peptides with signal intensities between 1X and 3X mean were scored as “indeterminate” and ascribed as neither array positive binding interactions nor array-negative non-binders. […] This signature may be indicative of promiscuity differences between phosphopeptides or there may be a subset of peptides which interact in a nonspecific fashion with either the GST fusion tag or one of the antibodies used for detection, resulting in false positives. […]
Substance,SH2 Domains >3X,2X < SH2 Domains < 3X,"Other SH2 domains bound (additional array-positive SH2 domains) (SH2 domains with intensity >3X array mean, GST-SH2 0.25 μM, 1 mM DTT)"
SLTIpYAQVQKA [A08],"BCAR3, BMX, BRDG1, FER, MATK, SH2D1B, TENC1","MIST, PI3K1_N, PTPN11_N, PTPN11_C, RIN1, Sh2b, SHC1, SHD, SYK_C",
SDDDpYDDVDIP [A12],"BRK, NCK1, SLNK",,
YVTDpYLDVPSN [A16],SLNK,"BRK, RASA1_N",
STDEpYLDLSAP [F11],LCK,,
APVSpYADMRTG [C21],,MIST,
PTYFpYVTDYLD [A15],"BCAR3, BRK, ITK, MATK, PLCG2_N, PLCG2_C, RASA1_N, SH2D2A, SLNK, SYK_C, VAV1","DAPP1, RIN1, SH2D1B, TENC1",
RKRTpYSLTTPA [D13],"BCAR3, BRDG1, ITK, PLCG2_N, TENC1","BMX, BRK, MIST, SHB, SHF",
PNGDpYLNVSPS [D21],"GADS, GRAP, GRB2, GRB7, VAV1","HCK, PI3K1_N, SH2D1B, SHIP1",
KEEGpYELPYNP [H21],"ABL1, ABL2, BLK, BRK, FGR, FYN, HCK, ITK, LCK, LYN, NCK1, PI3K1_N, RASA1_N, RASA1_C, RIN1, SH2D1B, SHC1, SHIP1, SRC, VAV1, YES","FER, GRB7",
VLSYpYSLPRSF [C13],"CRK, CRKL, Sh2b, SH2D2A, SHF, SYK_C","BRDG1, PLCG2_C, PTPN11_C, SHB",
DLKSpYLRSLRP [A22],"BCAR3, BMX, BRDG1, FER, MIST, PLCG2_N, Sh2b, SHB, SHF, TENC1","BRK, ITK, MATK, PLCG2_C, PTPN11_C, RIN1, SHD, SYK_C",
WMEDpYDYVHLQ [H12],"BCAR3, BMX, BRK, CRK, CRKL, DAPP1, FER, GRB7, ITK, MATK, NCK1, PI3K1_N, PLCG2_N, RASA1_N, RASA1_C, RIN1, SH3BP2, TENC1","ABL1, BLK, FYN, HCK, LCK, LYN, PLCG2_C, SH2D1B, SHB, SHC1, SHIP1, SRC",
QSHTpYVNTPAS [G12],"GADS, GRAP, GRB2, GRB7, VAV1","ABL1, SH2D2A",
GTEEpYMKMDLG [C18],,PI3K1_C,
"PPALpYAEPLDS [11-mer phosphotyrosine peptide, p62DOK1 (Y296)]",,,"Abl1, Nck1, Vav1, Zap70_N"
PLSDpYMNLDFS [D24],"GADS, GRAP, GRB2, RASA1_N, SYK_C","ABL1, GRB7, PI3K1_C, PLCG2_N, RASA1_C",
PGMEpYSYDINR [E21],"BRDG1, GRB7","LCK, RASA1_N",
SLPQpYPHINGS [F06],ZAP70_N,,
GGEFpYGYMTMD [D10],"BCAR3, DAPP1, GRB7, PLCG2_C, SLNK","BMX, MATK, RASA1_N, RASA1_C",
EYRKpYGGAKLN [B07],"BCAR3, BMX, BRDG1, BRK, FER, PLCG2_N, TENC1","ITK, MIST, PTPN11_C, RIN1, SHF, SHD, SYK_C",
GGSPpYPGIPVE [F01],ZAP70_N,,
THDLpYMIMREC [F10],,PI3K1_C,
EGPLpYVIVEAA [F13],"ITK, MATK, PLCG2_N, RASA1_N, SYK_C","ABL2, PLCG2_C, PTPN11_N, SH2D1B",
RGMQpYLESRKA [F15],"BCAR3, BRDG1, TENC1","BMX, ITK, MIST, PLCG2_N, PLCG2_C, SHF",
NGILpYLEDPVN [G22],"Sh2b, SHB, SHF, SYK_C",,
DGMApYLNAKKF [A23],"BCAR3, BMX, BRDG1, FER, GRB2, MIST, PTPN11_N, PTPN11_C, RIN1, Sh2b, SHF, SHD, TENC1","BRK, DAPP1, FGR, ITK, MATK, PI3K1_N, PI3K1_C, PLCG2_N, PLCG2_C, SH3BP2, SHB, SHE, YES",
LTGVpYRLCLSA [D08],,"BCAR3, BRDG1, MIST, TENC1",

Substance,SH2 Domains >3X,2X < SH2 Domains < 3X,"Other SH2 domains bound (additional array-positive SH2 domains) (SH2 domains with intensity >3X array mean, GST-SH2 0.25 μM, 1 mM DTT)"
VSCApYQVARGM [F14],BRDG1,"CRK, ITK, MIST, PLCG2_N, PLCG2_C, SHF, SYK_C",
SVIVpYKMKSGT [E04],"BCAR3, BMX, BRDG1, TENC1","BRK, FER, MIST, PTPN11_C, SHF, SHD, SYK_C",
GVSEpYELPEDP [E05],"BRK, NCK1, PLCG2_C, VAV1, YES","BLK, BMX, DAPP1, FER, FGR, LCK, LYN, RIN1, SH3BP2, SHC1",
FKRSpYEEHIPY [B05],"SHB, SHF, SHD, SHE","BRDG1, TENC1",
GYPRpYPSFGDA [G01],,ZAP70_N,
WRGDpYGGKKQL [H04],"BCAR3, BRDG1, BRK, DAPP1, FER, MIST, RIN1, TENC1","BMX, ITK, PLCG2_N, Sh2b, SH3BP2, SHF, SHD, SYK_C",
NPGNpYTARIQA [B08],"BRDG1, MIST, PLCG2_N, PTPN11_C, SHF, SHD, SYK_C","DAPP1, Sh2b, SH3BP2, SHB, SHE",
YWDLpYEHAQQQ [H18],"ABL1, BCAR3, BMX, FER, ITK, MATK, RASA1_N, RASA1_C, SH3BP2, SHB, TENC1",CRKL,
DLSApYASISFQ [C23],"PTPN11_N, PTPN11_C","SH2D1B, SHD, SHE",
ELILpYTRKRDS [F20],"BCAR3, BRDG1, MIST, PLCG2_N, SHF, TENC1","BMX, DAPP1, PLCG2_C, PTPN11_C, RASA1_C, SHB, SHD",
ARLEpYYENEKK [B19],"GRB7, MIST, SH3BP2","SH2D2A, SHF, SHD",
FAQLpYRSLMYS [G18],"BRDG1, MIST, Sh2b, SH2D2A, SHB, SHF, SHD, TENC1, ZAP70_N","BMX, DAPP1, GADS, GRAP, PLCG2_N, PTPN11_C, SYK_C",
PSDApYYGPEDP [C10],"DAPP1, PLCG2_N, PLCG2_C","BLK, BMX, LCK, RASA1_N",
RSDDpYMPMSPA [D19],,PI3K1_C,
PPALpYAEPLDS [H15],"ABL1, ITK, NCK1, RASA1_N, RASA1_C, VAV1, ZAP70_N",ABL2,
EDLSpYGDVPPG [B23],"ABL1, BRK, FGR, FYN, LCK, LYN, SH2D1B, SHC1, SHIP1, SLNK, YES","BLK, HCK, GRB7",
SIEEpYTEMMPA [C03],"BRK, SHC1","BLK, FER, FGR, LCK, PI3K1_C",
RQLNpYIQVDLE [G09],"BCAR3, BMX, BRDG1, DAPP1, ITK, MIST, PLCG2_C, PTPN11_N, RASA1_N, SHB, SHF, SHD, SHE, SYK_C, VAV1, ZAP70_N","PTPN11_C, Sh2b",
TNELpYMMMRDS [E17],,PI3K1_C,
TKDEpYFAVAAE [D04],,SH2D1B,
MEYSpYDINRVP [E22],ABL1,,
MDGGpYLDQPDN [B04],"FGR, FYN, LYN, SH2D1B, SHC1, SHIP1, SRC, YES","BLK, HCK, LCK",
ETDYpYRKGGKG [B02],"BCAR3, BRDG1, BRK, TENC1","BMX, MIST, PLCG2_N, RIN1, SHF, SYK_C",
HIDYpYKKTTNG [E14],"BCAR3, BMX, BRDG1, CRK, FER, MIST, PTPN11_C, SHF, TENC1","CRKL, ITK, PLCG2_N, PLCG2_C, PTPN11_N, RIN1, SH3BP2, SHB, SHD, SYK_C, ZAP70_N",
GDITpYGQFAQL [G17],,GRB7,
ADDGpYMPMTPG [D18],"HCK, SRC",PI3K1_C,
